Data on 19 compounds can be found in publication PMC4859520, “Binding Properties of General Odorant Binding Proteins from the Oriental Fruit Moth, Grapholita molesta (Busck) (Lepidoptera: Tortricidae)” (PLoS ONE, 2016).

In general, Ki refers to a dissociation constant, usually derived from enzyme kinetics or from competition with a known ligand. Broadly, the IC50 is the point on the concentration scale where inhibition reaches its midpoint.

For one assay, the target named is GmolGOBP1 (Grapholita molesta, UniProt H9XTU5). The experiment in a line: Fluorescence competitive binding assay with probe 1-NPN, rGmolGOBP1. The note with it: for binding to rGmolGOBP1 (in words): competitive binding with 1-NPN. The procedure: (§1) Fluorescence binding assays were performed on a Hitachi (Tokyo, Japan) F-4500 fluorescence spectrophotometer with a 1 cm light path fluorimeter quartz cuvette. Both of the slit widths for excitation and emission were 10 nm. 1-N-phenyl-naphthylamine (1-NPN) was dissolved in HPLC purity grade methanol to yield a 1 mM stock solution. […] The probes were excited at 337 nm and emission spectra were recorded between 370 and 550 nm. […] Binding data were collected in three independent measurements.
(§2) Dissociation constants of the complex GmolGOBPs/1-NPN (K1-NPN) were calculated by a nonlinear regression binding curve, using Prism 5.0 (GraphPad Software Inc.).

Another assay addresses GmolGOBP2 (Grapholita molesta, UniProt H9XTU6). The experiment in a line: Fluorescence competitive binding assay with probe 1-NPN, rGmolGOBP2 wild-type. As for the experimental part:
as §1, §2

The target in another assay is rGmolPBP1. Also on record: method as in earlier work. The settings on record: cited from earlier work.
The target of another assay is rGmolOBP8. On the set-up: method as in PMID 26609640. The note with it: cited from earlier work.
The target of the next assay is rGmolOBP11. Also on record: method as in PMID 26609640. The note with it: cited from earlier work.
For the next assay, the target named is GmolGOBP2 T9A (Grapholita molesta, UniProt H9XTU6, T29A). The experiment in a line: Fluorescence competitive binding assay, GmolGOBP2 mutant T9A. The procedure:
(§3) Fluorescence binding assays were performed on a Hitachi (Tokyo, Japan) F-4500 fluorescence spectrophotometer with a 1 cm light path fluorimeter quartz cuvette. Both of the slit widths for excitation and emission were 10 nm. 1-N-phenyl-naphthylamine (1-NPN) was dissolved in HPLC purity grade methanol to yield a 1 mM stock solution. A 2 μM solution of the protein in 20 mM Tris-HCl, pH 7.4, was titrated with aliquots of 1 mM 1-NPN to final concentrations of 1, 2, 4, 6, 8, 10, 12, 14, 16, 18, and 22 μM. The probes were excited at 337 nm and emission spectra were recorded between 370 and 550 nm. All ligands (S1 File) used in competitive binding assays were also dissolved in HPLC purity grade methanol. The final concentrations of sex pheromones were between 1 and 22 μM for each rGmolGOBP protein, whereas the concentrations of 30 synthetic plant volatiles to rGmolGOBP1 and 2 were up to 64 and 100 μM, respectively. Binding data were collected in three independent measurements.
(§4) Dissociation constants of the complex GmolGOBPs/1-NPN (K1-NPN) were calculated by a nonlinear regression binding curve, using Prism 5.0 (GraphPad Software Inc.). The inhibition constants (Ki) of the competitors were computed from the corresponding IC50 values using the equation: Ki = [IC50]/(1+[1−NPN]/K1−NPN), where [1−NPN] is the free concentration of 1−NPN and K1-NPN is the dissociation constant of the complex protein/1-NPN.
(§5) Gene-specific primers were designed in accordance with the recommended protocols of the TaKaRa MutanBEST Kit (TaKaRa, Shiga, Japan). The GmolGOBP2 coding sequence was mutated to create the three mutants GmolGOBP2 T9A (threonine to alanine at position 9), GmolGOBP2 V111A (valine to alanine at position 111), and GmolGOBP2 V114A (valine to alanine at position 114). Mutations were obtained using the TaKaRa MutanBEST Kit with Pyrobest DNA polymerase with the pMD19-T/GmolGOBP2 plasmid DNA as template. All plasmids containing mutations were verified by DNA sequencing. Mutated protein expression and enrichment were performed as described above for rGmolGOBP1 and 2. After determining concentrations, purified mutants were applied to verify the binding affinities with dodecanol and its analogs in fluorescence ligand-binding assays.

In the next assay the target is GmolGOBP2 V111A (Grapholita molesta, UniProt H9XTU6, V131A). The experiment in a line: Fluorescence competitive binding assay, GmolGOBP2 mutant V111A. The settings on record: for affinity of V111A mutant versus wild-type (in words): V111A versus wild-type rGmolGOBP2. As for the experimental part: as §3, §4, §5
The target in the next assay is GmolGOBP2 V114A (Grapholita molesta, UniProt H9XTU6, V134A). The experiment in a line: Fluorescence competitive binding assay, GmolGOBP2 mutant V114A. The note with it: for affinity of V114A mutant versus wild-type (in words): V114A versus wild-type rGmolGOBP2. As for the experimental part: as §3, §4, §5
[1] abbreviates: protein and 1-NPN 2 μM, pH 7.4, calculated from IC50, read-out: GmolGOBP1 Ki.
[2] abbreviates: protein and 1-NPN 2 μM, pH 7.4, displacing half of initial fluorescence, read-out: GmolGOBP1 IC50.
The mark [3] stands for this setting: protein and 1-NPN 2 μM, pH 7.4, calculated from IC50, read-out: GmolGOBP2 Ki.
Where [4] appears, read: protein and 1-NPN 2 μM, pH 7.4, displacing half of initial fluorescence, read-out: GmolGOBP2 IC50.
Where [5] appears, read: T9A versus wild-type rGmolGOBP2.

Read-outs that look alike come from different tables or passages of the source.

Sequence of GmolGOBP2 V114A (H9XTU6 entry or part of it V134A): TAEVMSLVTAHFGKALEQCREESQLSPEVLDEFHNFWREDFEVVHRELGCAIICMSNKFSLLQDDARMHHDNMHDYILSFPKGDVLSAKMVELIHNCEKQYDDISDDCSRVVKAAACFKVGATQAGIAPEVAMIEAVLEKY
Sequence of GmolGOBP2 T9A (H9XTU6 entry or part of it T29A): as the sequence (H9XTU6 entry or part of it V134A) above, with T9A, A114V counted along it
Sequence of GmolGOBP2 (H9XTU6 entry or part of it): as the sequence (H9XTU6 entry or part of it V134A) above, with A114V counted along it
Sequence of GmolGOBP1 (H9XTU5 entry or part of it): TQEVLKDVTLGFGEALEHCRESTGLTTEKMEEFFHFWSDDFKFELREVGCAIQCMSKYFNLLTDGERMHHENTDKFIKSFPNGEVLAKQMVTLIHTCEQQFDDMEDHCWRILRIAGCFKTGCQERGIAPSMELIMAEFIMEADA
Sequence of GmolGOBP2 V111A (H9XTU6 entry or part of it V131A): as the sequence (H9XTU6 entry or part of it V134A) above, with V111A, A114V counted along it

Take `CCCCCCC=O` [Heptanal]: at GmolGOBP1 (setting [1]), the inhibitory constant (Ki) was 34.2 µM. Besides, on GmolGOBP1 (setting [2]), the IC50 amounted to 37.1 ± 4.5 µM.

On to `CCCCCCCCCCCCCCCC` [Hexadecane], for which, at GmolGOBP1, the “binding to rGmolGOBP1 (in words)” value is given as “very weak binding affinities”.

With `CCCCCC=O` [Hexanal], on GmolGOBP1, the 50% inhibitory concentration (IC50) came to 33.6 ± 2 µM and the Ki was found to be 30.9 µM.

As for `CCCCCCOC(C)=O` [Hexyl acetate], the inhibitory constant (Ki) at GmolGOBP1 (setting [1]) was 27.5 µM; on GmolGOBP2 (setting [3]), 81.6 µM. For the same compound, the values for the IC50 on GmolGOBP1 (setting [2]) and at GmolGOBP2 (setting [4]) were 29.9 ± 4.11 µM and 98.8 ± 3.63 µM, respectively.

In the case of `CC(=O)OCCC(C)C` [Isoamyl acetate], at GmolGOBP1 (setting [1]), the Ki was 26.6 µM. Moreover, the IC50 at GmolGOBP1 (setting [2]) came to 29 ± 2.18 µM.

Consider `CC/C=C\CC1C(=O)CCC1CC(=O)OC` (centres unmarked) [Methyl jasmonate], for which the inhibitory constant (Ki) was 35.8 µM on GmolGOBP1 (setting [1]) and 60.8 µM on GmolGOBP2 (setting [3]). Moreover, the concentration for half-maximal inhibition (IC50) at GmolGOBP1 (setting [2]) was found to be 38.9 ± 1.56 µM; on GmolGOBP2 (setting [4]), 73.7 ± 5 µM.

On to `COC(=O)c1ccccc1O` [Methyl salicylate], for which, at GmolGOBP1, the half-maximal inhibitory concentration (IC50) amounted to 49.8 ± 6.48 µM and the affinity corresponds to a Ki of 45.8 µM. Besides, at GmolGOBP2, the IC50 amounted to 93.7 ± 5.55 µM and the Ki turned out to be 77.3 µM.

Consider `CCCCCCCCC=O` [Nonanal], for which the Ki is 54.4 µM on GmolGOBP1 (setting [1]) and 75.3 µM at GmolGOBP2 (setting [3]). The concentration for half-maximal inhibition (IC50) at GmolGOBP1 (setting [2]) is 59.2 ± 8.7 µM; on GmolGOBP2 (setting [4]), 91.2 ± 5.49 µM.

Take `CCCCCCCCCCCCCCCCCC` [Octadecane]: the “binding to rGmolGOBP1 (in words)” value at GmolGOBP1 was “very weak binding affinities”.

With `CCCCCCCC=O` [Octanal], the values for the Ki on GmolGOBP1 (setting [1]) and at GmolGOBP2 (setting [3]) were 21.5 µM and 66.4 µM, respectively. For the same compound, the results for the IC50 on GmolGOBP1 (setting [2]) and at GmolGOBP2 (setting [4]) were 23.3 ± 1.43 µM and 80.4 ± 3.79 µM, respectively.

As to `CCCCCCCCCCCCCCC` [Pentadecane], at GmolGOBP1 (setting [1]), the Ki is 11.4 µM. In addition, at GmolGOBP1 (setting [2]), the IC50 turned out to be 12.4 ± 1.87 µM.

Take `CCCCCCCCCCCCCC` [Tetradecane]: at GmolGOBP1 (setting [1]), the Ki was 8.47 µM. Further, the concentration for half-maximal inhibition (IC50) on GmolGOBP1 (setting [2]) was 9.21 ± 1.31 µM.

In the case of `CCC/C=C\CCCCCCCOC(C)=O` [Z8-12:AC, (Z)-8-dodecenyl acetate], at GmolGOBP1, the “binding to rGmolGOBP1 (in words)” value was “did not bind”. The Ki is 14.4 µM at GmolGOBP2 (setting [3]) and 1.1 µM at rGmolPBP1. The IC50 at GmolGOBP2 (setting [4]) was 17.4 ± 0.87 µM.

Regarding `CCC/C=C\CCCCCCCO` [Z8-12:OH, (Z)-8-dodecenyl alcohol], the Ki on GmolGOBP1 (setting [1]) was 3.14 µM; at GmolGOBP2 (setting [3]), 12.8 µM; on rGmolOBP8, 5.59 µM; on rGmolOBP11, 3.05 µM. In addition, the IC50 on GmolGOBP1 (setting [2]) worked out at 3.85 ± 0.41 µM; on GmolGOBP2 (setting [4]) it was 15.5 ± 0.52 µM.

For the compound `CCCCCCCCCCO` [decanol], the Ki at GmolGOBP2 was determined as 15.3 ± 1 µM; on GmolGOBP2 T9A, 39.6 ± 2.34 µM; on GmolGOBP2 V111A, 11.3 ± 0.17 µM; at GmolGOBP2 V114A it was 15.6 ± 0.43 µM. At GmolGOBP2 T9A (setting [5]), the “decrease in affinity of T9A mutant” value is on record as 3-5 fold. Also, at GmolGOBP2 V111A, the “affinity of V111A mutant versus wild-type (in words)” value is reported as “no differences”. In addition, the “affinity of V114A mutant versus wild-type (in words)” value at GmolGOBP2 V114A is reported as “no differences”.

On to `CCCCCCCCCCCCCCCCO` [hexadecanol], for which the inhibitory constant (Ki) at GmolGOBP2 (rGmolGOBP2 wild-type, protein and 1-NPN 2 μM, ligand 0 to 14 μM, read-out: Ki Wild-Type) is 1.35 ± 0.45 µM; at GmolGOBP2 T9A, 22.4 ± 3.03 µM; on GmolGOBP2 V111A it was 1.36 ± 0.13 µM; on GmolGOBP2 V114A, 1.99 ± 0.74 µM. The “affinity of T9A mutant versus wild-type (in words)” value at GmolGOBP2 T9A (setting [5]) is “drastical decline in affinity”. Besides, at GmolGOBP2 V111A, the “affinity of V111A mutant versus wild-type (in words)” value is reported as “no differences”. Moreover, the “affinity of V114A mutant versus wild-type (in words)” value at GmolGOBP2 V114A is listed as “no differences”.

In the case of `CCCCCCCCCCCCCCO` [tetradecanol], the Ki was 0.36 ± 0.05 µM on GmolGOBP2; 5.75 ± 0.86 µM at GmolGOBP2 T9A (mutant T9A, protein and 1-NPN 2 μM, ligand 0 to 14 μM, read-out: Ki T9A); 0.3 ± 0.16 µM at GmolGOBP2 V111A (mutant V111A, protein and 1-NPN 2 μM, ligand 0 to 14 μM, read-out: Ki V111A); 0.37 ± 0.14 µM on GmolGOBP2 V114A (mutant V114A, protein and 1-NPN 2 μM, ligand 0 to 14 μM, read-out: Ki V114A). On GmolGOBP2 T9A (setting [5]), the “affinity of T9A mutant versus wild-type (in words)” value is “drastical decline in affinity”. Besides, the “affinity of V111A mutant versus wild-type (in words)” value at GmolGOBP2 V111A was “no differences”. Further, at GmolGOBP2 V114A, the “affinity of V114A mutant versus wild-type (in words)” value is “no differences”.

Take `C=C/C(C)=C/CCC(=C)C` [α-Ocimene]: the figures for the Ki at GmolGOBP1 (setting [1]) and at GmolGOBP2 (setting [3]) were 12.4 µM and 44.1 µM, respectively. Further, the IC50 turned out to be 13.5 ± 0.79 µM at GmolGOBP1 (setting [2]) and 53.4 ± 4.91 µM at GmolGOBP2 (setting [4]).

At GmolGOBP1, `CC1=CCC2CC1C2(C)C` (stereo not drawn) [α-Pinene] gave a half-maximal inhibitory concentration (IC50) of 16.1 ± 1.22 µM and a Ki of 14.8 µM. Besides, on GmolGOBP2, the half-inhibitory concentration (IC50) worked out at 51.7 ± 7.11 µM and the inhibition constant (Ki) came out at 42.6 µM.
